According to PubChem BioAssay (NCI):
Values joined by “and” are separate entries in the source; they are usually repeats but may differ in a detail not shown here. Identical values can stand only once.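 Five compound concentrations were applied to cells in 96-well plates for 48 hours; endpoints were derived by simple linear interpolation of the resulting dose-response curve. Abbreviation: GI50, concentration required for 50% inhibition of growth. TGI marks complete inhibition of growth.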

Assays:
Assay in all cases: NCI anticancer screen, dose series, 48 h
DU-145 prostate = tested on: DU-145 prostate
RPMI-8226 leukemia = tested on: RPMI-8226 leukemia
CCRF-CEM leukemia = tested on: CCRF-CEM leukemia
U251 CNS = tested on: U251 CNS
T-47D breast = tested on: T-47D breast
ACHN renal = tested on: ACHN renal
A549 NSCLC = tested on: A549 NSCLC
EKVX NSCLC = tested on: EKVX NSCLC
HCC-2998 colon = tested on: HCC-2998 colon
COLO 205 colon = tested on: COLO 205 colon

| SMILES | GI50 (DU-145 prostate) [µM] | TGI (DU-145 prostate) [µM] | GI50 (RPMI-8226 leukemia) | TGI (RPMI-8226 leukemia) | GI50 (CCRF-CEM leukemia) | TGI (CCRF-CEM leukemia) | GI50 (U251 CNS) | TGI (U251 CNS) | GI50 (T-47D breast) [µM] | TGI (T-47D breast) [µM] | GI50 (ACHN renal) [µM] | TGI (ACHN renal) [µM] | GI50 (A549 NSCLC) | TGI (A549 NSCLC) | GI50 (EKVX NSCLC) | TGI (EKVX NSCLC) | GI50 (HCC-2998 colon) | TGI (HCC-2998 colon) | GI50 (COLO 205 colon) | TGI (COLO 205 colon) |
| --- | --- | --- | --- | --- | --- | --- | --- | --- | --- | --- | --- | --- | --- | --- | --- | --- | --- | --- | --- | --- |
| N/C(=N\OC(=O)c1ccccc1)C(C(=O)NOC(=O)c1ccccc1)C1CCCCC1 (stereo unspecified) | 2.76 | 10.3 | 3.12 µM | 12.2 µM | 2.71 µM | 9.79 µM | 1.78 µM | 3.87 µM | 7.57 | 28.2 | 3.04 | 10.9 | 2.08 µM | 5.05 µM | 6.1 µM | 20.9 µM | 13.5 µM | 27.2 µM | 11.6 µM | 26.8 µM |
| CS(=O)(=O)c1ccc(Cl)c([N+](=O)[O-])c1 | 13.3 | 26.4 | 25.5 µM | 70 µM | 19.2 µM | 52.2 µM | 15.2 µM | 29 µM | 13.5 | 35.1 | 16 | 29.7 | 19.3 µM | 41.1 µM | 18.5 µM | 38.1 µM | 11 µM | 24 µM | 16.4 µM | 33.2 µM |
| CCc1nc(N)nc(N)c1-c1ccc([N+](=O)[O-])c(NCc2ccccc2)c1 | – | 31.5 | – | 32.2 µM | – | 32.5 µM | – | 30.1 µM | – | > 46.8 | – | 30.5 | – | 24.8 µM | – | 41.6 µM | – | 36.7 µM | – | 35 µM |
| Cc1cc2c(C(C)C)c(O)c(O)c(C=Nc3cc(C(F)(F)F)ccc3Cl)c2c(O)c1-c1c(C)cc2c(C(C)C)c(O)c(O)c(C=Nc3cc(C(F)(F)F)ccc3Cl)c2c1O | – | > 100 | – | > 100 µM | – | > 100 µM | – | 72.2 µM | – | > 100 | – | 79.4 | – | > 100 µM | – | > 100 µM | – | > 100 µM | – | 90.5 µM |
| CSc1ccc(/C=C2\CNC/C(=C\c3ccc(SC)cc3)C2=O)cc1 | – | > 371 | 61.9 µg/mL | > 371 µM and 150 µg/mL | 29.1 µg/mL | > 371 µM and 78.8 µg/mL | 34.8 µM and 21.7 µg/mL | 83.7 µM and 65.4 µg/mL | – | > 371 | – | > 371 | 150 µg/mL | > 371 µM and 150 µg/mL | 150 µg/mL | > 371 µM and 150 µg/mL | > 371 µM and 150 µg/mL | > 371 µM and 150 µg/mL | 150 µg/mL | > 371 µM and 150 µg/mL |
| O=C(CC(C(=O)c1cccs1)c1ccc2c(c1)OCO2)c1ccc(Br)cc1 (stereo unspecified) | – | > 100 | – | > 100 µM | – | > 100 µM | – | > 100 µM | – | > 100 | – | > 100 | – | > 100 µM | – | > 100 µM | – | > 100 µM | – | > 100 µM |
| Nc1c(C(=O)Nc2ccc([As](=O)(O)O)cc2)cnc2nnnn12 | – | > 100 | – | > 100 µM | – | > 100 µM | – | > 100 µM | – | > 100 | – | > 100 | – | > 100 µM | – | > 100 µM | – | > 100 µM | – | > 100 µM |
| CC(O)CNC1=CC(=O)C(=O)c2ccccc21 (stereo unspecified) | – | 29.1 | – | 48 µM | – | > 100 µM | – | 30.6 µM | – | 45.2 | – | 35.6 | – | 39.5 µM | – | 40.2 µM | – | 26.5 µM | – | 22 µM |
| COc1ccc(Cl)cc1Nc1nc(C(F)(F)F)ccc1C(=O)NN | 2.42 | > 20.2 | 1.91 µM | 13.3 µM | 0.319 µM | 2.86 µM | 2.43 µM | > 100 µM | 5.06 | > 100 | 2.53 | > 100 | 18.4 µM | > 100 µM | 2.93 µM | > 100 µM | – | 9.82 µM | 7.76 µM | > 100 µM |
